Experimental data taken from PubChem BioAssay AID1918954 (Molecular Pharmacology Branch, DTP, NCI, 2023).

System: MDA-MB-468 complex spheroids with HUVEC/MSC, viability
Assay: Anticancer human tumor MDA-MB-468 cell line growth inhibition;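 note: spheroids exposed to agents for seven days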
Conditions: for IC50: curve of first compound; for viability, T/C: stronger effect = lower value; active = viability on the fitted dose curve at most 10% of control; inactive = the rest
Summary of the method: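 Multicellular complex spheroids of tumor cells with human endothelial cells (HUVEC) and mesenchymal stem cells; the LSD1 inhibitor iadademstat was combined with standard-of-care or investigational agents. Top concentration at or near clinical Cmax, half-log dilutions; final DMSO ≤0.25%.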

[1] = second compound 0.1 µM, first compound 0.0316 µM
[2] = second compound 0.1 µM, first compound 0.1 µM
[3] = second compound 0.316 µM, first compound 0.0316 µM
[4] = second compound 0.316 µM, first compound 0.1 µM
[5] = second compound 1 µM, first compound 0.0316 µM
[6] = second compound 1 µM, first compound 0.1 µM
[7] = second compound 3.16 µM, first compound 0.0316 µM
[8] = second compound 3.16 µM, first compound 0.1 µM
[9] = second compound 10 µM, first compound 0.0316 µM
[10] = second compound 10 µM, first compound 0.1 µM

CC1(C)CCC(CN2CCN(c3ccc(C(=O)NS(=O)(=O)c4ccc(NCC5CCOCC5)c([N+](=O)[O-])c4)c(Oc4cnc5[nH]ccc5c4)c3)CC2)=C(c2ccc(Cl)cc2)C1 + NC1CC1c1ccc(-c2cccc(O)c2)cc1
509 nM: IC50 (second compound 10 µM)
1820 nM: IC50 (second compound 0.1 µM)
inactive: viability, T/C [1] 106% | viability, T/C [2] 90.4% | viability, T/C (second compound 0.1 µM, first compound 0.316 µM) 96.9% | viability, T/C (second compound 0.1 µM, first compound 1 µM) 72.7% | viability, T/C (second compound 0.1 µM, first compound 3.16 µM) 29% | viability, T/C [3] 90.3% | viability, T/C [4] 108% | viability, T/C (second compound 0.316 µM, first compound 0.316 µM) 94.4% | viability, T/C (second compound 0.316 µM, first compound 1 µM) 64.7% | viability, T/C (second compound 0.316 µM, first compound 3.16 µM) 30.9% | viability, T/C [5] 93.7% | viability, T/C [6] 101% | viability, T/C (second compound 1 µM, first compound 0.316 µM) 88.6% | viability, T/C (second compound 1 µM, first compound 1 µM) 75.8% | viability, T/C (second compound 1 µM, first compound 3.16 µM) 27.4% | viability, T/C [7] 91.2% | viability, T/C [8] 83.1% | viability, T/C (second compound 3.16 µM, first compound 0.316 µM) 92.1% | viability, T/C (second compound 3.16 µM, first compound 1 µM) 64% | viability, T/C (second compound 3.16 µM, first compound 3.16 µM) 24.5% | viability, T/C [9] 78.5% | viability, T/C [10] 67.7% | viability, T/C (second compound 10 µM, first compound 0.316 µM) 59.9% | viability, T/C (second compound 10 µM, first compound 1 µM) 38.5% | viability, T/C (second compound 10 µM, first compound 3.16 µM) 16.8%
1550 nM: IC50 (second compound 3.16 µM)
active: viability, T/C (second compound 0.1 µM, first compound 10 µM) 2.15% | viability, T/C (second compound 0.316 µM, first compound 10 µM) 1.99% | viability, T/C (second compound 1 µM, first compound 10 µM) 2.31% | viability, T/C (second compound 3.16 µM, first compound 10 µM) 1.95% | viability, T/C (second compound 10 µM, first compound 10 µM) 1.82%
1830 nM: IC50 (second compound 1 µM)
1700 nM: IC50 (second compound 0.316 µM)

Cn1ncnc1C1c2n[nH]c(=O)c3cc(F)cc(c23)NC1c1ccc(F)cc1 (stereo not given) + NC1CC1c1ccc(-c2cccc(O)c2)cc1
87.7 nM: IC50 (second compound 0.1 µM)
2.6 nM: IC50 (second compound 10 µM)
inactive: viability, T/C (second compound 0.1 µM, first compound 0.000316 µM) 98.1% | viability, T/C (second compound 0.1 µM, first compound 0.001 µM) 102% | viability, T/C (second compound 0.1 µM, first compound 0.00316 µM) 72.5% | viability, T/C (second compound 0.1 µM, first compound 0.01 µM) 73.1% | viability, T/C [1] 64.6% | viability, T/C [2] 46.7% | viability, T/C (second compound 0.316 µM, first compound 0.000316 µM) 120% | viability, T/C (second compound 0.316 µM, first compound 0.001 µM) 79.1% | viability, T/C (second compound 0.316 µM, first compound 0.00316 µM) 67.4% | viability, T/C (second compound 0.316 µM, first compound 0.01 µM) 60.9% | viability, T/C [3] 52.8% | viability, T/C [4] 46% | viability, T/C (second compound 1 µM, first compound 0.000316 µM) 93.2% | viability, T/C (second compound 1 µM, first compound 0.001 µM) 112% | viability, T/C (second compound 1 µM, first compound 0.00316 µM) 67% | viability, T/C (second compound 1 µM, first compound 0.01 µM) 57.6% | viability, T/C [5] 61.9% | viability, T/C [6] 42.4% | viability, T/C (second compound 3.16 µM, first compound 0.000316 µM) 92.8% | viability, T/C (second compound 3.16 µM, first compound 0.001 µM) 85.5% | viability, T/C (second compound 3.16 µM, first compound 0.00316 µM) 74.5% | viability, T/C (second compound 3.16 µM, first compound 0.01 µM) 48.2% | viability, T/C [7] 50.6% | viability, T/C [8] 39.1% | viability, T/C (second compound 10 µM, first compound 0.000316 µM) 74.1% | viability, T/C (second compound 10 µM, first compound 0.001 µM) 67.7% | viability, T/C (second compound 10 µM, first compound 0.00316 µM) 45.9% | viability, T/C (second compound 10 µM, first compound 0.01 µM) 33.5% | viability, T/C [9] 34.8% | viability, T/C [10] 26.3%
12 nM: IC50 (second compound 3.16 µM)
> 100 nM: IC50 (second compound 0.316 µM) | IC50 (second compound 1 µM)

NS(=O)(=O)OCC1CC(n2ccc3c(NC4CCc5ccccc54)ncnc32)CC1O (stereo not given) + NC1CC1c1ccc(-c2cccc(O)c2)cc1
11.2 nM: IC50 (second compound 0.316 µM)
inactive: viability, T/C (second compound 0.1 µM, first compound 0.00949 µM) 54.5% | viability, T/C (second compound 0.1 µM, first compound 0.03 µM) 28.2% | viability, T/C (second compound 0.316 µM, first compound 0.00949 µM) 54.2% | viability, T/C (second compound 0.316 µM, first compound 0.03 µM) 26.2% | viability, T/C (second compound 0.316 µM, first compound 0.0949 µM) 9.29% | viability, T/C (second compound 1 µM, first compound 0.00949 µM) 45.8% | viability, T/C (second compound 1 µM, first compound 0.03 µM) 20.7% | viability, T/C (second compound 3.16 µM, first compound 0.00949 µM) 36.5% | viability, T/C (second compound 3.16 µM, first compound 0.03 µM) 18.4% | viability, T/C (second compound 10 µM, first compound 0.00949 µM) 20.9% | viability, T/C (second compound 10 µM, first compound 0.03 µM) 12.1%
< 9.49 nM: IC50 (second compound 1 µM) | IC50 (second compound 3.16 µM) | IC50 (second compound 10 µM)
11.5 nM: IC50 (second compound 0.1 µM)
active: viability, T/C (second compound 0.1 µM, first compound 0.0949 µM) 9.26% | viability, T/C (second compound 0.1 µM, first compound 0.3 µM) 5.09% | viability, T/C (second compound 0.1 µM, first compound 0.949 µM) 2.96% | viability, T/C (second compound 0.1 µM, first compound 3 µM) 2.17% | viability, T/C (second compound 0.316 µM, first compound 0.3 µM) 5.11% | viability, T/C (second compound 0.316 µM, first compound 0.949 µM) 3% | viability, T/C (second compound 0.316 µM, first compound 3 µM) 2.26% | viability, T/C (second compound 1 µM, first compound 0.0949 µM) 9.67% | viability, T/C (second compound 1 µM, first compound 0.3 µM) 4.9% | viability, T/C (second compound 1 µM, first compound 0.949 µM) 3.15% | viability, T/C (second compound 1 µM, first compound 3 µM) 2.38% | viability, T/C (second compound 3.16 µM, first compound 0.0949 µM) 9.14% | viability, T/C (second compound 3.16 µM, first compound 0.3 µM) 5.23% | viability, T/C (second compound 3.16 µM, first compound 0.949 µM) 3.44% | viability, T/C (second compound 3.16 µM, first compound 3 µM) 2.31% | viability, T/C (second compound 10 µM, first compound 0.0949 µM) 5.43% | viability, T/C (second compound 10 µM, first compound 0.3 µM) 3.74% | viability, T/C (second compound 10 µM, first compound 0.949 µM) 2.55% | viability, T/C (second compound 10 µM, first compound 3 µM) 2.05%
